# What was measured:
# [1] = Toxicity evaluation in vivo (body and organ weight); design: species or system mice
# Procedure: The weight of nude mice treated with the compound of example 4 (30 mg kg-1) or vehicle was measured before, during and after treatment. To evaluate the weight of heart, spleen, kidney, and liver, mice were sacrified after 21 days of treatment, organs were dissected, rinsed in PBS, and weight was measured.
# We evaluated whether compounds of general formula elicited toxic effects in vivo by following mouse weight before, during and after treatment. […] We also evaluated the weight of heart, spleen, kidney and liver of mice treated with the compound of example 4 or vehicle.
# PC-3 = experiment: NCI 60 human tumour cell line screen; format: cell-based; settings: conc. 10^−5M; PC-3, Prostate Cancer
# From the text: (§1) Compound of example 4 was screened in the NCI 60 human tumour cell line anticancer drug screen (Shoemaker et al Nature reviews 6, 2006, 813-823).
# MCF7 = experiment: NCI 60 human tumour cell line screen; format: cell-based; settings: conc. 10^−5M; MCF7, Breast Cancer
# From the text: as §1
# NCl-H322M = experiment: NCI 60 human tumour cell line screen; format: cell-based; settings: conc. 10^−5M, Non-Small Cell Lung Cancer
# From the text: as §1
# HCT-15 = experiment: NCI 60 human tumour cell line screen; format: cell-based; settings: conc. 10^−5M; HCT-15, Colon Cancer
# From the text: as §1
# NCl-H23 = experiment: NCI 60 human tumour cell line screen; format: cell-based; settings: conc. 10^−5M; NCl-H23, Non-Small Cell Lung Cancer
# From the text: as §1
# T-47D = experiment: NCI 60 human tumour cell line screen; format: cell-based; settings: conc. 10^−5M, Breast Cancer
# From the text: as §1
# SK-MEL-2 = experiment: NCI 60 human tumour cell line screen; format: cell-based; settings: conc. 10^−5M; SK-MEL-2, Melanoma
# From the text: as §1
# U251 = experiment: NCI 60 human tumour cell line screen; format: cell-based; settings: conc. 10^−5M; U251, CNS Cancer
# From the text: as §1
# OVCAR-3 = experiment: NCI 60 human tumour cell line screen; format: cell-based; settings: conc. 10^−5M; OVCAR-3, Ovarian Cancer
# From the text: as §1
# OVCAR-4 = experiment: NCI 60 human tumour cell line screen; format: cell-based; settings: conc. 10^−5M; OVCAR-4, Ovarian Cancer
# From the text: as §1
# A498 = experiment: NCI 60 human tumour cell line screen; format: cell-based; settings: conc. 10^−5M; A498, Renal Cancer
# From the text: as §1
# NCl•H226 = experiment: NCI 60 human tumour cell line screen; format: cell-based; settings: conc. 10^−5M; NCl•H226, Non-Small Cell Lung Cancer
# From the text: as §1
# OVCAR-8 = experiment: NCI 60 human tumour cell line screen; format: cell-based; settings: conc. 10^−5M; OVCAR-8, Ovarian Cancer
# From the text: as §1
# SR = experiment: NCI 60 human tumour cell line screen; format: cell-based; settings: conc. 10^−5M, Leukemia
# From the text: as §1
# SK-OV-3 = experiment: NCI 60 human tumour cell line screen; format: cell-based; settings: conc. 10^−5M; SK-OV-3, Ovarian Cancer
# From the text: as §1
# K-562 = experiment: NCI 60 human tumour cell line screen; format: cell-based; settings: conc. 10^−5M; K-562, Leukemia
# From the text: as §1
# M14 = experiment: NCI 60 human tumour cell line screen; format: cell-based; settings: conc. 10^−5M; M14, Melanoma
# From the text: as §1
# RPMI -8226 = experiment: NCI 60 human tumour cell line screen; format: cell-based; settings: conc. 10^−5M; RPMI -8226, Leukemia
# From the text: as §1
# BT-549 = experiment: NCI 60 human tumour cell line screen; format: cell-based; settings: conc. 10^−5M; BT-549, Breast Cancer
# From the text: as §1
# SNB-19 = experiment: NCI 60 human tumour cell line screen; format: cell-based; settings: conc. 10^−5M; SNB-19, CNS Cancer
# From the text: as §1
# LOX IMVI = experiment: NCI 60 human tumour cell line screen; format: cell-based; settings: conc. 10^−5M, Melanoma
# From the text: as §1
# KM12 = experiment: NCI 60 human tumour cell line screen; format: cell-based; settings: conc. 10^−5M; KM12, Colon Cancer
# From the text: as §1
# MDA-MB-231/ATCC = experiment: NCI 60 human tumour cell line screen; format: cell-based; settings: conc. 10^−5M, Breast Cancer
# From the text: as §1
# HL-60(TB) = experiment: NCI 60 human tumour cell line screen; format: cell-based; settings: conc. 10^−5M, Leukemia
# From the text: as §1
# CAK I-1 = experiment: NCI 60 human tumour cell line screen; format: cell-based; settings: conc. 10^−5M; CAK I-1, Renal Cancer
# From the text: as §1
# NCl/ADR-RES = experiment: NCI 60 human tumour cell line screen; format: cell-based; settings: conc. 10^−5M, Ovarian Cancer
# From the text: as §1
# A549/ATCC = experiment: NCI 60 human tumour cell line screen; format: cell-based; settings: conc. 10^−5M, Non-Small Cell Lung Cancer
# From the text: as §1
# OVCAR-5 = experiment: NCI 60 human tumour cell line screen; format: cell-based; settings: conc. 10^−5M; OVCAR-5, Ovarian Cancer
# From the text: as §1
# ACHN = experiment: NCI 60 human tumour cell line screen; format: cell-based; settings: conc. 10^−5M, Renal Cancer
# From the text: as §1
# UACC-62 = experiment: NCI 60 human tumour cell line screen; format: cell-based; settings: conc. 10^−5M; UACC-62, Melanoma
# From the text: as §1
# UO-31 = experiment: NCI 60 human tumour cell line screen; format: cell-based; settings: conc. 10^−5M; UO-31, Renal Cancer
# From the text: as §1
# SW-620 = experiment: NCI 60 human tumour cell line screen; format: cell-based; settings: conc. 10^−5M; SW-620, Colon Cancer
# From the text: as §1
# HS 578T = experiment: NCI 60 human tumour cell line screen; format: cell-based; settings: conc. 10^−5M, Breast Cancer
# From the text: as §1
# MDA-MB-468 = experiment: NCI 60 human tumour cell line screen; format: cell-based; settings: conc. 10^−5M; MDA-MB-468, Breast Cancer
# From the text: as §1
# SK-MEL-5 = experiment: NCI 60 human tumour cell line screen; format: cell-based; settings: conc. 10^−5M; SK-MEL-5, Melanoma
# From the text: as §1
# MOLT-4 = experiment: NCI 60 human tumour cell line screen; format: cell-based; settings: conc. 10^−5M; MOLT-4, Leukemia
# From the text: as §1
compound,measurement,setting,value
"O=C(Cc1cc(C(F)(F)F)cc(C(F)(F)F)c1)N[C@@H](Cc1ccccc1)C(=O)Nc1ccc(-c2cn3c(n2)sc2ccccc23)cc1 [Example 4, (S)-2-(3,5-bis(trifluoromethyl)phenylacetamido)-3-phenyl-N-[4-(imidazo[2,1-b]benzothiazol-2-yl)phenyl]propanamide]","weight of heart, spleen, kidney and liver","[1]; after 21 days of treatment, versus vehicle",No differences
same,weight of mice,"[1]; daily treated, 30 mg kg-1, compared to vehicle",No significant changes
same,Growth Percent,PC-3,38.29%
same,Growth Percent,MCF7,59.09%
same,Growth Percent,NCl-H322M,28.70%
same,Growth Percent,HCT-15,44.16%
same,Growth Percent,NCl-H23,39.55%
same,Growth Percent,T-47D,67.66%
same,Growth Percent,SK-MEL-2,45.85%
same,Growth Percent,U251,34.24%
same,Growth Percent,OVCAR-3,2.50%
same,Growth Percent,OVCAR-4,−0.79%
same,Growth Percent,A498,120.10%
same,Growth Percent,NCl•H226,90.93%
same,Growth Percent,OVCAR-8,3.54%
same,Growth Percent,SR,58.33%
same,Growth Percent,SK-OV-3,96.62%
same,Growth Percent,K-562,63.10%
same,Growth Percent,M14,30.58%
same,Growth Percent,RPMI -8226,66.73%
same,Growth Percent,BT-549,82.05%
same,Growth Percent,SNB-19,69.84%
same,Growth Percent,LOX IMVI,26.60%
same,Growth Percent,KM12,16.15%
same,Growth Percent,MDA-MB-231/ATCC,17.15%
same,Growth Percent,HL-60(TB),79.95%
same,Growth Percent,CAK I-1,53.37%
same,Growth Percent,NCl/ADR-RES,43.07%
same,Growth Percent,A549/ATCC,31.71%
same,Growth Percent,OVCAR-5,97.36%
same,Growth Percent,ACHN,81.23%
same,Growth Percent,UACC-62,69.45%
same,Growth Percent,UO-31,67.05%
same,Growth Percent,SW-620,12.13%
same,Growth Percent,HS 578T,16.75%
same,Growth Percent,MDA-MB-468,78.09%
same,Growth Percent,SK-MEL-5,10.83%
same,Growth Percent,MOLT-4,43.46%
